# Target: T1, human cathepsin K (Homo sapiens, UniProt P43235)
# T1 construct: The proform of cathepsin K was converted to mature cathepsin K by brief exposure to pH 4; made in house; host or cells: baculovirus; Trichoplusia ni High Five cells (virus raised in Sf-9)
# T1 sequence (P43235 115-329): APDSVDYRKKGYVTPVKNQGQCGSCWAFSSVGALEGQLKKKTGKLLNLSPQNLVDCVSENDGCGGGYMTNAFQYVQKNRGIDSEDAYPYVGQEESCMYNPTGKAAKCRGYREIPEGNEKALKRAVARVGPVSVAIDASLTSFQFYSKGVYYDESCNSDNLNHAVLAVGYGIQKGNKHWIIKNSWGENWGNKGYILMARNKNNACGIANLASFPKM
# Assay: Cathepsin K inhibition assay, fluorogenic substrate Cbz-Phe-Arg-AMC, progress curve method
# Format: biochemical
# Conditions: Table 1; human recombinant enzyme, pH 5.5, 30° C., 10 μM substrate; read-out: hCat K Ki
# Description: All assays for cathepsin K were carried out with human and rat recombinant enzyme. Assays for cathepsins S Et V were also carried out with human recombinant enzyme. Assays for human cathepsins B. H. and L were carried out with enzyme, purchased from Athens Research and Technology, Inc., prepared from human liver tissue. […] A stock substrate solution of Cbz-Phe-Arg-AMC was prepared at a concentration of 50 mM in dimethyl sulfoxide. This substrate was diluted into the assay for a final substrate concentration of 10 μM in the rat cathepsin K, human cathepsin K, and human cathepsin B assays; a final substrate concentration of 5 μM in the human cathepsin L assay; and a final substrate concentration of 2 μM in the human cathepsin V assay.
# All assays contained 10% dimethyl sulfoxide. […] All assays were conducted at 30° C. Product fluorescence (excitation at 360 nm; emission at 440 nm, (except cathepsin H which used excitation at 340 nm; emission at 420 nm)) was monitored with a PerSeptive Biosystems Cytofluor II fluorescence plate reader. Product progress curves were generated over 2.3 h monitoring the formation of 7-amino-4-methylcoumarin product (or β-naphthalamide for cathepsin H).
# Two liters of Spodoptera frugiperda (Sf-9) cells (ATCC) were grown in Grace's Supplemented medium (Life Technologies) supplemented with 2 g/L glucose, 10% a fetal bovine serum (HyClone) and 0.10% pluronic F-68 (Life Technologies). […] The cells continued to grow for 72 h post-infection, before the virus was harvested by centrifugation at 1400× g for 30 min.
# One and one-half liters of Trichoplusia ni (T. ni) High Five (TM) cells [JRH Biosciences, Woodland, Calif. […] Media were separated from cells at a rate of 1 L/min using the Centritech 100 (TM) continuous-flow centrifuge (DuPont) operating at 200× g.
# Protein Purification: Media (human and rat) were filtered through a Whatman 3 filter, and then loaded onto a 25 mL Poros HS II (26 mm×47 mm) cation exchange column equilibrated in 25 mM sodium acetate at pH 5.5 (equilibration buffer). The column was washed until the absorbance reached the baseline value, and then the protein was eluted with a linear gradient from 0-2 M sodium chloride in the equilibration buffer. Column fractions were analyzed by SDS-PAGE, N-terminal sequencing, and mass spectrometry. Fractions containing the proform of cathepsin K were pooled and frozen at −80° C. The proform was concentrated in an Amicon Centriprep 10 and fractionated with a Superdex 75 column (26 mm×600 mm, Pharmacia) equilibrated in 400 mM sodium chloride, 25 mM sodium acetate at pH 5.5.
# Cathepsin K Activation: The proform of cathepsin K was converted to mature cathepsin K by brief exposure to pH 4 in the presence of 5 mM L-cysteine. Typically, 5 mM L-cysteine was added to 10 mL of approximately 1 mg/mL procathepsin K. One mL of this solution was diluted ten-fold into 450 mM sodium acetate at pH 4.0 containing 5 mM L-cysteine. This solution was reacted at 23° C. for 2 min before neutralization with 2 mL 1.8 M sodium acetate at pH 6.0. The neutralized sample was added to the remaining 9 mL of procathepsin K. The mixture was incubated at 4° C. for 2-3 days. The activated cathepsin K was chromatographed on a Poros HS II column as described above.
# Potential inhibitors were evaluated using the progress curve method. Assays were carried out in the presence of variable concentrations of test compound. Reactions were initiated by addition of buffered solutions of inhibitor and substrate to enzyme. Data analysis was conducted according to one of two procedures depending on the appearance of the progress curves in the presence of inhibitors. […] Ki values were calculated from IC50 values using equation 2 assuming a competitive model. [formula]
row,Compound,Ki
1,CCCC[C@H](NC(=O)O[C@H](Cc1nnc(-c2ccc(F)cc2)o1)C(C)(C)C)C(=O)C(=O)N[C@H]1CCCNC1=O [Example 25],0.01 to 1 nM
2,"CCCC[C@H](NC(=O)O[C@@H](Cn1cnc(-c2ccccc2)c1)C(C)(C)C)C(=O)C(=O)N[C@H](C)c1ccccc1 [Example 13, (1R)-2,2-dimethyl-1-[(4-phenyl-1H-imidazol-1-yl)methyl]propyl(1S)-1-(oxo{[(1R)-1-phenylethyl]amino}acetyl)pentylcarbamate]",100 to 10000 nM
3,"CCCC[C@H](NC(=O)O[C@@H](Cc1nnc(-c2ccccc2)o1)C(C)(C)CC)C(=O)C(=O)N[C@H](C)c1ccccc1 [Example 9, (1S)-2,2-dimethyl-1-[(5-phenyl-1,3,4-oxadiazol-2-yl)methyl]butyl(1S)-1-(oxo{[(1R)-1-phenylethyl]amino}acetyl)pentylcarbamate]",100 to 10000 nM
4,"CCCC[C@H](NC(=O)O[C@H](Cn1cnc(-c2ccccc2)c1)C(C)(C)C)C(=O)C(=O)N[C@H](C)c1ccccc1 [Example 12, (1S)-2,2-dimethyl-1-[(4-phenyl-1H-imidazol-1-yl)methyl]propyl(1S)-1-(oxo{[(1R)-1-phenylethyl]amino}acetyl)pentylcarbamate]",0.01 to 1 nM
5,"CCCC[C@H](NC(=O)O[C@H](CCc1nnc(-c2ccc(C(F)(F)F)cc2)o1)C(C)(C)C)C(=O)C(=O)Nc1ccn[nH]1 [Example 26, (1R)-2,2-dimethyl-1-(2-{5-[4-(trifluoromethyl)phenyl]-1,3,4-oxadiazol-2-yl}ethyl)propyl(1S)-1-[oxo(1H-pyrazol-5-ylamino)acetyl]pentylcarbamate]",0.01 to 1 nM
6,CCCC[C@H](NC(=O)O[C@H](Cc1nnc(-c2ccc(C(F)(F)F)cc2)o1)C(C)(C)C)C(=O)C(=O)N[C@H](C)c1ccccc1 [Example 17],0.01 to 1 nM
7,"CCCC[C@H](NC(=O)O[C@H](Cn1cc(-c2ccc(C(F)(F)F)cc2)cn1)C(C)(C)C)C(=O)C(=O)Nc1ccn[nH]1 [Example 14, (1S)-2,2-dimethyl-1-({4-[4-(trifluoromethyl)phenyl]-1H-pyrazol-1-yl}methyl)propyl(1S)-1-[oxo(1H-pyrazol-5-ylamino)acetyl]pentylcarbamate]",0.01 to 1 nM
8,"CCCC[C@H](NC(=O)O[C@H](Cn1ccc(-c2ccc(C(F)(F)F)cc2)n1)C(C)(C)C)C(=O)C(=O)Nc1ccccn1 [Example 5, (1S)-2,2-dimethyl-1-({3-[4-(trifluoromethyl)phenyl]-1H-pyrazol-1-yl}methyl)propyl(1S)-1-[oxo(2-pyridinylamino)acetyl]pentylcarbamate]",1 to 100 nM
9,"CCCC[C@H](NC(=O)O[C@H](Cc1nnc(-c2ccc(F)cc2)o1)C(C)(C)C)C(=O)C(=O)NCc1cccnc1 [Example 4, (1R)-1-{[5-(4-fluorophenyl)-1,3,4-oxadiazol-2-yl]methyl}-2,2-dimethylpropyl(1S)-1-{oxo[(3-pyridinylmethyl)amino]acetyl}pentylcarbamate]",1 to 100 nM
10,"CCCC[C@H](NC(=O)O[C@@H](Cn1ccc(-c2ccc(C(F)(F)F)cc2)n1)C(C)(C)C)C(=O)C(=O)Nc1ccn[nH]1 [Example 2, (1R)-2,2-dimethyl-1-({3-[4-(trifluoromethyl)phenyl]-1H-pyrazol-1-yl}methyl)propyl(1S)-1-[oxo(1H-pyrazol-3-ylamino)acetyl]pentylcarbamate]",1 to 100 nM
11,"CCCC[C@H](NC(=O)O[C@H](Cn1cnc(-c2ccc(F)cc2)c1)C(C)(C)C)C(=O)C(=O)N[C@H](C)c1ccccc1 [Example 6, (1S)-1-{[4-(4-fluorophenyl)-1H-imidazol-1-yl]methyl}-2,2-dimethylpropyl (1S)-1-(oxo{[(1R)-1-phenylethyl]amino}acetyl)pentylcarbamate]",0.01 to 1 nM

# Now from value to compound:
row,Ki,Compound
1,0.01 to 1 nM,"CCCC[C@H](NC(=O)O[C@H](c1nnc(-c2ccncc2)o1)C(C)(C)C)C(=O)C(=O)Nc1ccn[nH]1 [Example 54, (1S)-2,2-dimethyl-1-[5-(4-pyridinyl)-1,3,4-oxadiazol-2-yl]propyl(1S)-1-[oxo(1H-pyrazol-5-ylamino)acetyl]pentylcarbamate]"
2,0.01 to 1 nM,"CCCC[C@H](NC(=O)O[C@H](Cn1nccc1-c1ccc(C(F)(F)F)cc1)C(C)(C)C)C(=O)C(=O)Nc1ccn[nH]1 [Example 30, (1S)-2,2-dimethyl-1-({5-[4-(trifluoromethyl)phenyl]-1H-pyrazol-1-yl}methyl)propyl(1S)-1-[oxo(1H-pyrazol-5-ylamino)acetyl]pentylcarbamate]"
3,1 to 100 nM,"CCCC[C@H](NC(=O)O[C@@H](c1nnc(-c2cccnc2)o1)C(C)(C)C)C(=O)C(=O)Nc1ccn[nH]1 [Example 53, (1R)-2,2-dimethyl-1-[5-(3-pyridinyl)-1,3,4-oxadiazol-2-yl]propyl(1S)-1-[oxo(1H-pyrazol-5-ylamino)acetyl]pentylcarbamate]"
4,0.01 to 1 nM,"CCCC[C@H](NC(=O)O[C@H](c1nnc(-c2cccnc2)o1)C(C)(C)C)C(=O)C(=O)Nc1ccn[nH]1 [Example 52, (1S)-2,2-dimethyl-1-[5-(3-pyridinyl)-1,3,4-oxadiazol-2-yl]propyl(1S)-1-[oxo(1H-pyrazol-5-ylamino)acetyl]pentylcarbamate]"
5,100 to 10000 nM,"CCCC[C@H](NC(=O)O[C@@H](c1nnc(-c2ccc(C(F)(F)F)cc2)o1)C(C)(C)C)C(=O)C(=O)Nc1ccn[nH]1 [Example 40, (1R)-2,2-dimethyl-1-{5-[4-(trifluoromethyl)phenyl]-1,3,4-oxadiazol-2-yl}propyl(1S)-1-[oxo(1H-pyrazol-5-ylamino)acetyl]pentylcarbamate]"
6,0.01 to 1 nM,"CCCC[C@H](NC(=O)O[C@H](Cn1ccc(C(F)(F)F)n1)C(C)(C)C)C(=O)C(=O)Nc1ccn[nH]1 [Example 29, (1S)-2,2-dimethyl-1-{[3-(trifluoromethyl)-1H-pyrazol-1-yl]methyl}propyl(1S)-1-[oxo(1H-pyrazol-5-ylamino)acetyl]pentylcarbamate]"
7,0.01 to 1 nM,"CCCC[C@H](NC(=O)O[C@H](Cn1cnc(Cc2ccccc2)c1)C(C)(C)C)C(=O)C(=O)Nc1ccn[nH]1 [Example 34, (1S)-1-[(4-benzyl-1H-imidazol-1-yl)methyl]-2,2-dimethylpropyl(1S)-1-[oxo(1H-pyrazol-5-ylamino)acetyl]pentylcarbamate]"
8,100 to 10000 nM,"CCCC[C@H](NC(=O)O[C@@H](c1nc2ccccc2s1)C(C)(C)C)C(=O)C(=O)Nc1ccn[nH]1 [Example 32, (1R)-1-(1,3-benzothiazol-2-yl)-2,2-dimethylpropyl(1S)-1-[oxo(1H-pyrazol-5-ylamino)acetyl]pentylcarbamate]"
9,0.01 to 1 nM,"CCCC[C@H](NC(=O)O[C@H](Cn1ccc(-c2ccc(C(F)(F)F)cc2)n1)C(C)(C)C)C(=O)C(=O)Nc1nccs1 [Example 46, (1S)-2,2-dimethyl-1-({3-[4-(trifluoromethyl)phenyl]-1H-pyrazol-1-yl}methyl)propyl(1S)-1-[oxo(1,3-thiazol-2-ylamino)acetyl]pentylcarbamate]"
10,100 to 10000 nM,CCCC[C@H](NC(=O)O[C@@H](c1nc2c(OCC)ccc(OCC)c2n1C)C(C)(C)C)C(=O)C(=O)Nc1ccn[nH]1 [Example 43]
11,0.01 to 1 nM,"CCCC[C@H](NC(=O)O[C@H](c1nc2ccccc2s1)C(C)(C)C)C(=O)C(=O)Nc1ccn[nH]1 [Example 31, (1S)-1-(1,3-benzothiazol-2-yl)-2,2-dimethylpropyl(1S)-1-[oxo(1H-pyrazol-5-ylamino)acetyl]pentylcarbamate]"

# From patent publication US20050107616A1, “Alpha-ketoamide derivatives as cathepsin k inhibitors” (priority 2001, published 2005)
